ChEMBL document CHEMBL2016490, “Sinularioside, a triacetylated glycolipid from the Indonesian soft coral Sinularia sp., is an inhibitor of NO release” (2012)

Columns and labels:
Assay type in all cases: functional
Details in all cases: J774, 24 h
J774 [1] = assay: Antiinflammatory activity in mouse J774 cells assessed as inhibition of LPS-induced NO production at 10 uM after 24 hrs by Griess method
J774 [2] = assay: Antiinflammatory activity in mouse J774 cells assessed as inhibition of LPS-induced NO production at 30 uM after 24 hrs by Griess method
J774 [3] = assay: Antiinflammatory activity in mouse J774 cells assessed as inhibition of LPS-induced NO production at 100 uM after 24 hrs by Griess method

`CCCCCCCCCCCCCCO[C@H]1OC[C@@H](O[C@H]2OC[C@@H](O)[C@@H](OC(C)=O)[C@@H]2OC(C)=O)[C@@H](O)[C@@H]1OC(C)=O` [SINULARIOSIDE] showed an inhibition at 10 µM (J774 [1]) of 6%, an inhibition at 30 µM (J774 [2]) of 58.2% and an inhibition at 100 µM (J774 [3]) of 92.3%.
